According to US9751919B2, “Antimicrobial compositions comprising a hyaluronic acid binding peptide and a β-lactam antibiotic” (priority 2012, dated 2017):
Where two headings read alike, the source gives them in different places. Marks after values point to notes of the source that are not given here.

Legend:
[1] = test system: E. coli; assay: MIC (CLSI broth dilution), agent alone; type: cell-based, Escherichia coli
Protocol: (§1) VISA (strains 92, 95 and 96), VRSA (strains 105 and 106) and E. coli (strain 69717) isolates were also tested. One MSSA was used as a control. All MICs were assessed using CLSI guidelines. Also assessed was the activity of cefazolin, ceftriazone, meropenem, and a piperacillin/tazobactam combination antibiotic. Minimum inhibitory concentration (MIC) is the lowest concentration of an antimicrobial that will inhibit the visible growth of a microorganism after incubation.
(§2) Antimicrobial Susceptibility Testing: A custom designed panel of antimicrobials was created. The panel included: PEP35, penicillin, piperacillin/tazobactam, cefazolin, ceftriaxone, meropenem, clarithromycin, clindamycin, gentamicin, amikacin, vancomycin, ciprofloxacin, levofloxacin, moxifloxacin, linezolid, trimethoprim/sulfamethoxazole and doxycycline. These agents were obtained as laboratory grade powders from their respective manufacturers. Stock solutions were prepared and dilutions made as described by the Clinical Laboratory Standards Institute (2005 CLSI). Following two subcultures from frozen stock the MICs of the antimicrobial agents for the isolates were determined by the CLSI 2005 approved broth macrodilution method. Briefly, test tubes containing doubling antibiotic dilutions (2 ml per tube) of cation adjusted Mueller-Hinton broth (eg. for Enterobacteriaceae) with or without lysed horse blood (2-5% V/V) [eg. for S. pneumoniae] were inoculated to achieve a final concentration of approximately 5×10^5 CFU/ml and incubated in ambient air for 24 hours prior to reading. Colony counts were performed periodically to confirm inocula. Quality control was performed every two weeks using a variety of ATCC QC organisms including; S. aureus 29213, E. faecalis 29212, E. coli 25922 and P. aeruginosa 27853. For all antimicrobials as well as PEP35, CLSI criteria were used.
(§3) One MS SA and ATCC reference strains were used as controls. All MICs were assessed using CLSI guidelines.

[2] = test system: HA-MRSA; assay: MIC (CLSI broth dilution), agent alone; type: cell-based, Staphylococcus aureus
Protocol: as §1
as §2, with “The panel included: PEP35, penicillin, piperacillin/tazobactam, cefazolin, ceftriaxone, meropenem, clarithromycin, clindamycin, gentamicin, amikacin, vancomycin, ciprofloxacin, levofloxacin, moxifloxacin, linezolid, trimethoprim/sulfamethoxazole and doxycycline.” left out, “27853.” for “27853. For all antimicrobials as well as PEP35, CLSI criteria were used.”
(§4) One MSSA was used as a control. All MICs were assessed using CLSI guidelines.
as §3

[3] = test system: MSSA; assay: MIC (CLSI broth dilution), agent alone; type: cell-based, Staphylococcus aureus; conditions: for MIC: S. aureus control, agent alone
Protocol: as §1
as §2, with “The panel included: PEP35, penicillin, piperacillin/tazobactam, cefazolin, ceftriaxone, meropenem, clarithromycin, clindamycin, gentamicin, amikacin, vancomycin, ciprofloxacin, levofloxacin, moxifloxacin, linezolid, trimethoprim/sulfamethoxazole and doxycycline.” left out, “27853.” for “27853. For all antimicrobials as well as PEP35, CLSI criteria were used.”
as §4, §3

[4] = test system: CA-MRSA; assay: MIC (CLSI broth dilution), agent alone; type: cell-based, Staphylococcus aureus; conditions: for MIC: Staphylococcus aureus
Protocol: as §1
as §2, with “The panel included: PEP35, penicillin, piperacillin/tazobactam, cefazolin, ceftriaxone, meropenem, clarithromycin, clindamycin, gentamicin, amikacin, vancomycin, ciprofloxacin, levofloxacin, moxifloxacin, linezolid, trimethoprim/sulfamethoxazole and doxycycline.” left out, “27853.” for “27853. For all antimicrobials as well as PEP35, CLSI criteria were used.”
as §4, §3

[5] = test system: P. aeruginosa; assay: Checkerboard assay (FIC index); type: cell-based, Pseudomonas aeruginosa; conditions: antibiotic combined with PEP35
Protocol: (§5) The checkerboard assays were carried out as described by Eliopoulos and Moellering (Chapter 9) in Antibiotic in Laboratory Medicine, Lorian Ed. 1996 as well as Bonapace et al. Diagnostic Microbiology and Infectious Diseases 2002; 44:363-366 and Bonapace et al. Diagnostic Microbiology and Infectious Diseases 2000; 38:43-50. In brief, checkerboard assays were performed in 96 well microtitre trays using an 8-by-8 well configuration. […] 96-well custom designed microtitre plates contained 100 ul/well of cation adjusted Mueller-Hinton broth (eg. for Enterobacteriaceae) with or without lysed horse blood (2-5% V/V) [eg. for S. pneumoniae] and were inoculated to achieve a final concentration of approximately 5×10^5 CFU/ml and incubated in ambient air for 24 hours prior to reading. Colony counts were performed periodically to confirm inocula. Quality control was performed every two weeks using a variety of ATCC QC organisms including; S. pneumoniae 49619, S. aureus 29213, E. faecalis 29212, E. coli 25922 and P. aeruginosa 27853. For all antimicrobials as well as PEP35, CLSI criteria was used.
(§6) The fractional inhibitory concentration index (FIC index) was used to interpret synergy, antagonism or additivity/indifference. FIC index=FIC of drug A+FIC of drug B where:
(§7) The FIC of drug A and drug B is calculated as follows, FIC drug A=MIC of drug A in combination/MIC of drug A alone and FIC of drug B=MIC of drug B in combination/MIC of drug B alone. Synergy is defined as FIC index ≦0.5, additivity/indifference FIC >0.5-4 and antagonism FIC index >4.
(§8) Antimicrobials used included PEP35, cefazolin, ceftriaxone, vancomycin, linezolid, tigecycline and daptomycin versus Gram-positive cocci and PEP35, gentamicin, levofloxacin, piperacillin/tazobactam, meropenem and colistin (Polymyxin E) versus Gram-negative bacilli. These agents were obtained as laboratory grade powders from their respective manufacturers. Stock solutions were prepared and dilutions made as described by the Clinical Laboratory Standards Institute (2005 CLSI).
(§9) Organisms included Gram-positive cocci (2 strains of each): Methicillin-susceptible Staphylococcus aureus (MSSA), community-associated (CA) and healthcare-associated (HA) methicillin-resistant Staphylococcus aureus (MRSA), vancomycin-intermediate Staphylococcus aureus (VISA), vancomycin-resistant Staphylococcus aureus (VRSA), methicillin-resistant Staphylococcus epidermidis (MRSE), Streptococcus pyogenes, Streptococcus agalactiae, Streptococcus pneumoniae, Enterococcus faecalis, Enterococcus faecium and vancomycin-resistant enterococcus (VRE). Gram-negative bacilli tested (2 strains of each) included: E. coli, Pseudomonas aeruginosa, Klebsiella pneumoniae, K. oxytoca, Enterobacter cloacae, P. mirabilis and Stenotrophomonas maltophilia. MIC testing, following two subcultures from frozen stock were determined by the CLSI 2005 approved broth microdilution method.

[6] = test system: E. coli; assay: Checkerboard assay (FIC index); type: cell-based, Escherichia coli; conditions: antibiotic combined with PEP35
Protocol: Checkerboard assays were carried out as described by Bonapace et al.
as §5, with “Diagnostic” for “The checkerboard assays were carried out as described by Eliopoulos and Moellering (Chapter 9) in Antibiotic in Laboratory Medicine, Lorian Ed. 1996 as well as Bonapace et al. Diagnostic”, “2002; 44:363-366.” for “2002; 44:363-366 and Bonapace et al. Diagnostic Microbiology and Infectious Diseases 2000; 38:43-50.”, “27853. […] All peptides were assessed for synergy with β-lactams and vancomycin.” for “27853.”, “as the peptides,” for “as PEP35,”, “criteria were” for “criteria was”
as §6
as §7, with “was” for “is”, “additivity/indifference defined as a” for “additivity/indifference”, “between 0.5 and 4” for “>0.5-4”, “antagonism defined as an” for “antagonism”
as §5, §7, §8
Organisms included Gram-positive cocci (2 strains of each): Methicillin-susceptible Staphylococcus aureus (MSSA), community-associated (CA) and healthcare-associated (HA) methicillin-resistant Staphylococcus aureus (MRSA), vancomycin-intermediate Staphylococcus aureus (VISA), vancomycin-resistant Staphylococcus aureus (VRSA), methicillin-resistant Staphylococcus epidermidis (MRSE), Streptococcus pyogenes, Streptococcus agalactiae, Streptococcus pneumoniae, Enterococcus faecalis, Enterococcus faecium and vancomycin-resistant enterococcus (VRE). […]

[7] = test system: P. mirabilis; assay: Checkerboard assay (FIC index); type: cell-based, Proteus mirabilis; conditions: antibiotic combined with PEP35
Protocol: as §5, §6, §7, §8, §9

[8] = test system: K. pneumoniae; assay: Checkerboard assay (FIC index); type: cell-based, Klebsiella pneumoniae; conditions: antibiotic combined with PEP35
Protocol: as §5, §6, §7, §8, §9

[9] = test system: S. maltophilia; assay: Checkerboard assay (FIC index); type: cell-based, Stenotrophomonas maltophilia; conditions: antibiotic combined with PEP35
Protocol: as §5, §6, §7, §8, §9

[10] = test system: K. oxytoca; assay: Checkerboard assay (FIC index); type: cell-based, Klebsiella oxytoca; conditions: antibiotic combined with PEP35
Protocol: as §5, §6, §7, §8, §9

[11] = test system: E. cloacae; assay: Checkerboard assay (FIC index); type: cell-based, Enterobacter cloacae; conditions: antibiotic combined with PEP35
Protocol: as §5, §6, §7, §8, §9

CC1=C(C(=O)O)N2C(=O)[C@@H](NC(=O)[C@H](N)c3ccccc3)[C@H]2SC1 [Cephalexin]
Cephalexin (MIC) ([1]; E. coli, antibiotic alone, two values in cell): 8/8
MIC ([1]; Escherichia coli, E. coli control, agent alone, read-out: MIC): 8 µg/mL
MICs alone, range ([2]; 50 HA-MRSA strains): 128 to 512 µg/mL
strains resistant to the antibiotic ([2]; 50 HA-MRSA strains): 50 of the 50 strains
MIC ([2]; Staphylococcus aureus, MRSA / USA200, read-out: Cephalexin (MIC), HA-MRSA (CMRSA4/USA200), antibiotic alone): 512 µg/mL
Cephalexin (MIC) ([3]; S. aureus (control row), antibiotic alone, two values in cell): 4/4
MIC [3]: 8 µg/mL
MIC ([3]; Staphylococcus aureus, MSSA, read-out: MIC): 4 µg/mL
MICs alone, range ([4]; 50 CA-MRSA strains): 64 to 512 µg/mL
strains resistant to the antibiotic ([4]; 50 CA-MRSA strains): 50 of the 50 strains
MIC ([4]; MRSA / USA300): 128 µg/mL
MIC ([4]; MRSA / USA400): 128 µg/mL
MIC ([4]; MRSA / USA400, CA-MRSA (CMRSA7/USA400/MW2) isolates, one per table line, agent alone, read-out: MIC): 512 µg/mL

C[C@H]1COc2c(N3CCN(C)CC3)c(F)cc3c(=O)c(C(=O)O)cn1c23 [Levofloxacin, levofloxacin]
Avg ΣFIC (range) ([5]; P. aeruginosa 70849): 1.21 (1.03-1.5)
Avg ΣFIC (range) ([5]; P. aeruginosa 71841): 1.13 (1.0-1.25)
Avg ΣFIC (range) ([6]; E. coli 69716): 0.93 (0.56-1.12)
Avg ΣFIC (range) ([6]; E. coli 70752): 1.13 (0.75-1.12)
Avg ΣFIC (range) ([7]; P. mirabilis 80267): >1*
Avg ΣFIC (range) ([7]; P. mirabilis 81569): >1*
Avg ΣFIC (range) ([8]; K. pneumoniae 70508): 0.97 (0.75-1.12)
Avg ΣFIC (range) ([8]; K. pneumoniae 77081): 1.14 (1.06-1.25)
Avg ΣFIC (range) ([9]; S. maltophilia 73062): 1.21 (1.03-1.5)
Avg ΣFIC (range) ([9]; S. maltophilia 77424): 0.94 (0.62-1.12)
Avg ΣFIC (range) ([10]; K. oxytoca 75316): 0.88 (0.53-1.25)
Avg ΣFIC (range) ([10]; K. oxytoca 76874): 0.94 (0.62-1.12)
Avg ΣFIC (range) ([11]; E. cloacae 80194): 1.13 (1.0-1.25)
Avg ΣFIC (range) ([11]; E. cloacae 83128): 0.98 (0.75-1.12)
